The term inhibition denotes the change of the read-out against control, counted positive when it falls.

Consider three compounds from PubChem BioAssay AID588666 (The Scripps Research Institute Molecular Screening Center, 2011).

This test concerns the target Mitogen-activated protein kinase 1 (Homo sapiens) (UniProt P28482). Nature of the test: reduction of total ERK1/2 protein levels, late-stage follow-up, counter-screen for KLF5 inhibitor project, SW620 cells, chemiluminescent western blot, powder samples (AID 588666). As to conditions: ERK1/2 western blot, 24 h, at 10 µM; for inhibition: stronger effect = higher value; for fold change: measured here: ERK1/2 protein fold change vs DMSO, stronger effect = lower value.

The source made the active and inactive calls.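 The calls were made as follows: active = MAPK1 protein level shifted by at least 30% from DMSO-treated cells, either down or up; inactive = shift under 30% either way.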

Chain of Mitogen-activated protein kinase 1 (Homo sapiens) (P28482 whole entry, looked up): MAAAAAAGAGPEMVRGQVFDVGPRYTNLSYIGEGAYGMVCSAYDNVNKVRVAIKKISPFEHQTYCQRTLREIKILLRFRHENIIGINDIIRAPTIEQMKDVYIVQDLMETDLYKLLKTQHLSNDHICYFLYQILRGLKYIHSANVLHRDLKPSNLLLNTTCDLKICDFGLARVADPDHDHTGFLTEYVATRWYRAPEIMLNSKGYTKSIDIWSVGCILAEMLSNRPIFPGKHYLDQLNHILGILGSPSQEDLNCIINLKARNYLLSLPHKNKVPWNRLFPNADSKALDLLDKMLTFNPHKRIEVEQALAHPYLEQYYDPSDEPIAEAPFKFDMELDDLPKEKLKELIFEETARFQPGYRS

Consider `CN(C(=O)CNC(=O)/C=C/c1cccc(Cl)c1)C1CCS(=O)(=O)CC1`, for which the inhibition was -9.9% (inactive) and the fold change was found to be 1.1.
Regarding `CN(C(=O)CNC(=O)/C=C/c1cccc(Cl)c1)C1CCS(=O)(=O)C1` (stereo unspecified), the inhibition was 26.9% (inactive) and the fold change was -1.37.
Take `CN(C(=O)COC(=O)/C=C/c1cccc([N+](=O)[O-])c1)C1CCS(=O)(=O)C1` (stereo unspecified): the inhibition was 14.8% (inactive) and the fold change was -1.17.
